According to the supplement of paper PMC7017272:
± gives the standard deviation of the averaged measurements.

Assays:
[1] = test system: UT-SCC-24A; test: relative IC50 (midpoint of the fitted curve; maximal inhibition may be below 50%); higher = less potent; conditions: treatment time: 3 days
Method: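 HNSCC cell lines (500 cells/well, 384-well) were cultured on plastic, on top of (2D) or embedded (3D) in Matrigel or human leiomyoma matrix Myogel (500 ug/mL; Myogel 3D mixed with rat collagen I). Cells were treated for 3 days with 5 ten-fold concentrations of each drug, and viability was read by CellTiter-Glo. Viability was normalised to DMSO (0% inhibition) and 100 uM benzethonium chloride (100% inhibition) controls and fitted with the FIMM DSRT pipeline to give IC50 (nM), maximal % inhibition and the drug sensitivity score (DSS). Suffixes _1/_2/_3 on drug names are replicates.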

[2] = test system: UT-SCC-106A; test: relative IC50 (midpoint of the fitted curve; maximal inhibition may be below 50%); higher = less potent; conditions: treatment time: 3 days
Summary of the method: (§1)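 Three growth formats were used for HPV-negative HNSCC cell lines in 384-well plates at 500 cells/well: bare plastic, wells coated with Matrigel or Myogel (500 µg/mL), and embedding in Matrigel or Myogel plus rat collagen I. Compounds were added at five 10-fold concentrations, and after 3 days CellTiter-Glo 2.0 luminescence was recorded and normalised to vehicle (0.1% DMSO) and cell-killing control wells. IC50, maximal inhibition and drug sensitivity score came from percent-inhibition dose–response fitting in the FIMM pipeline.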

[3] = test system: UT-SCC-81; test: as above; conditions: treatment time: 3 days
Summary of the method: as §1

[4] = test system: UT-SCC-40; test: as above; conditions: treatment time: 3 days
Summary of the method: as §1

[5] = test system: UT-SCC-28; test: as above; conditions: culture condition: embedded in Myogel + collagen I; treatment time: 3 days
Summary of the method: as §1

[6] = test system: UT-SCC-42A; test: as above; conditions: treatment time: 3 days
Summary of the method: as §1

[7] = test system: UT-SCC-24B; test: as above; conditions: culture condition: embedded in Myogel + collagen I; treatment time: 3 days
Summary of the method: as §1

[8] = test system: UT-SCC-42B; test: as above; conditions: culture condition: on top of Myogel; treatment time: 3 days
Summary of the method: as §1

[9] = test system: UT-SCC-14; test: as above; conditions: treatment time: 3 days
Summary of the method: as §1

[10] = test system: UT-SCC-73; test: as above; conditions: treatment time: 3 days
Summary of the method: as §1

[11] = test system: UT-SCC-44; test: as above; conditions: treatment time: 3 days
Summary of the method: as §1

[12] = test system: UT-SCC-8; test: as above; conditions: culture condition: embedded in Myogel + collagen I; treatment time: 3 days
Summary of the method: as §1

[13] = test system: UT-SCC-81; test: maximal % inhibition of viability relative to DMSO; higher = stronger effect; conditions: treatment time: 3 days
Method: (§2)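 HNSCC cell lines (500 cells/well, 384-well) were cultured on plastic, on top of (2D) or embedded (3D) in Matrigel or human leiomyoma matrix Myogel (500 ug/mL; Myogel 3D mixed with rat collagen I). Cells were treated for 3 days with 5 ten-fold concentrations of each drug, and viability was read by CellTiter-Glo. Viability was normalised to DMSO and benzethonium chloride controls and fitted with the FIMM DSRT pipeline to give IC50 (nM), maximal % inhibition and DSS. Suffixes _1/_2/_3 are replicates. Only inhibition-mode (IC50) fits are kept.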

[14] = test system: UT-SCC-40; test: as above; conditions: treatment time: 3 days
Method: as §2

[15] = test system: UT-SCC-42A; test: as above; conditions: treatment time: 3 days
Method: as §2

[16] = test system: UT-SCC-24B; test: as above; conditions: treatment time: 3 days
Method: as §2

[17] = test system: UT-SCC-42B; test: as above; conditions: treatment time: 3 days
Method: as §2

[18] = test system: UT-SCC-73; test: as above; conditions: treatment time: 3 days
Method: as §2

[19] = test system: UT-SCC-44; test: as above; conditions: treatment time: 3 days
Method: as §2

[20] = test system: UT-SCC-8; test: as above; conditions: treatment time: 3 days
Method: as §2

[21] = culture condition: embedded in Myogel + collagen I
[22] = culture condition: on top of Myogel
[23] = culture condition: plastic 2D (no matrix)
[24] = culture condition: embedded in Matrigel
[25] = culture condition: on top of Matrigel

CO[C@H]1C[C@@H]2CC[C@@H](C)[C@@](O)(O2)C(=O)C(=O)N2CCCC[C@H]2C(=O)O[C@H]([C@H](C)C[C@@H]2CC[C@@H](OP(C)(C)=O)[C@H](OC)C2)CC(=O)[C@H](C)/C=C(\C)[C@@H](O)[C@@H](OC)C(=O)[C@H](C)C[C@H](C)/C=C/C=C/C=C/1C [Ridaforolimus]
relative IC50 [1, 21]: 2.61 nM | relative IC50 [1, 22]: 3.5 nM | relative IC50 [1, 23]: 1.98 nM | relative IC50 [2, 24]: 6.54 nM | relative IC50 [2, 22]: 8.68 nM | relative IC50 [3, 21]: 2.46 nM | relative IC50 [3, 25]: 1.38 nM | relative IC50 [4, 24]: 2.37 nM | relative IC50 [4, 22]: 1.94 nM | relative IC50 [4, 23]: 1.94 nM | relative IC50 [5]: 4.01 nM | relative IC50 [6, 24]: 6.44 nM | relative IC50 [6, 21]: 6.31 nM | relative IC50 [6, 25]: 1.65 nM | relative IC50 [6, 23]: 4.54 nM | relative IC50 [7]: 1.48 nM | relative IC50 [8]: 17.4 nM | relative IC50 [9, 24]: 0.761 nM | relative IC50 [9, 21]: 0.711 nM | relative IC50 [9, 22]: 0.632 nM | relative IC50 [9, 23]: 0.876 nM | relative IC50 [10, 25]: 0.734 nM | relative IC50 [10, 22]: 1.48 nM | relative IC50 [10, 23]: 3 nM | relative IC50 [11, 24]: 0.909 nM | relative IC50 [11, 21]: 4.16 nM | relative IC50 [11, 22]: 0.271 nM | relative IC50 [12]: 6.75 nM | maximal % inhibition of viability [13, 24]: 50 ± 11% | maximal % inhibition of viability [13, 21]: 64 ± 9.1% | maximal % inhibition of viability [13, 25]: 43.9 ± 1.1% | maximal % inhibition of viability [13, 22]: 54.6 ± 4.2% | maximal % inhibition of viability [13, 23]: 48.4 ± 5.3% | maximal % inhibition of viability [14, 24]: 29.4 ± 6.9% | maximal % inhibition of viability [14, 21]: 39 ± 9.4% | maximal % inhibition of viability [14, 25]: 27 ± 5.7% | maximal % inhibition of viability [14, 22]: 27.4 ± 1.4% | maximal % inhibition of viability [14, 23]: 22.4 ± 1.4% | maximal % inhibition of viability [15, 24]: 29.5 ± 6.2% | maximal % inhibition of viability [15, 21]: 42.7 ± 5% | maximal % inhibition of viability [15, 25]: 33.3 ± 2.6% | maximal % inhibition of viability [15, 22]: 37.1 ± 6.1% | maximal % inhibition of viability [15, 23]: 35.8 ± 5% | maximal % inhibition of viability [16, 24]: 21.4 ± 6.2% | maximal % inhibition of viability [16, 21]: 38.1 ± 5.8% | maximal % inhibition of viability [16, 25]: 26.7 ± 6.1% | maximal % inhibition of viability [16, 22]: 31.1 ± 7.1% | maximal % inhibition of viability [16, 23]: 27.4 ± 3.4% | maximal % inhibition of viability [17, 24]: 16.8 ± 7.8% | maximal % inhibition of viability [17, 25]: 14.9 ± 2.2% | maximal % inhibition of viability [17, 22]: 14.2 ± 3.1% | maximal % inhibition of viability [17, 23]: 14.5 ± 1.9% | maximal % inhibition of viability [18, 24]: 38.7 ± 16% | maximal % inhibition of viability [18, 21]: 42.4 ± 11% | maximal % inhibition of viability [18, 25]: 30.6 ± 3.4% | maximal % inhibition of viability [18, 22]: 40.2 ± 1.8% | maximal % inhibition of viability [18, 23]: 31.5 ± 4.3% | maximal % inhibition of viability [19, 24]: 32.8 ± 14% | maximal % inhibition of viability [19, 21]: 44.1 ± 8.6% | maximal % inhibition of viability [19, 25]: 39.2 ± 2.1% | maximal % inhibition of viability [19, 22]: 36.9 ± 4.2% | maximal % inhibition of viability [19, 23]: 33.7 ± 6.2% | maximal % inhibition of viability [20, 24]: 45 ± 7% | maximal % inhibition of viability [20, 21]: 33.2 ± 7.1% | maximal % inhibition of viability [20, 25]: 38.4 ± 1.7% | maximal % inhibition of viability [20, 22]: 49.2 ± 8.1% | maximal % inhibition of viability [20, 23]: 46.9 ± 5.1%
